Where “and” joins values, the source holds several entries; their conditions need not be identical. Equal values may be shown once. Where a name gives a salt, the structure may show the parent alone.
Legend:
[1] = molecular target: human RORγt ligand binding domain (RORγt LBD) (Homo sapiens (Human), UniProt P51449); test: RORγt ThermoFluor assay (thermal shift, binding affinity); settings: estimated from thermal shift concentration response
Protocol: This approach is applicable to a wide variety of systems, and rigorous in theoretical interpretation through quantitation of equilibrium binding constants (KD).
The shift in the melting point described as a ΔTm is proportional to the concentration and affinity of the ligand.
ThermoFluor® experiments were carried out using instruments owned by Janssen Research and Discovery, L.L.C. through its acquisition of 3-Dimensional Pharmaceuticals, Inc. 1,8-ANS (Invitrogen) was used as a fluorescent dye. Protein and compound solutions are dispensed into black 384-well polypropylene PCR microplates (Abgene) and overlayed with silicone oil (1 μL, Fluka, type DC 200) to prevent evaporation.
Bar-coded assay plates are robotically loaded onto a thermostatically controlled PCR-type thermal block and then heated at a typical ramp-rate of 1° C./min for all experiments. Fluorescence was measured by continuous illumination with UV light (Hamamatsu LC6) supplied via fiber optic and filtered through a band-pass filter (380-400 nm; >60D cutoff). Fluorescence emission of the entire 384-well plate was detected by measuring light intensity using a CCD camera (Sensys, Roper Scientific) filtered to detect 500±25 nm, resulting in simultaneous and independent readings of all 384 wells. Images were collected at each temperature, and the sum of the pixel intensity in a given area of the assay plate was recorded versus temperature. Reference wells contained RORγt without compounds, and the assay conditions were as follows: • 0.065 mg/mL RORγt • 60 μM 1,8-ANS • 100 mM Hepes, pH 7.0 • 10 mM NaCl • 2.5 mM GSH • 0.002% Tween-20
Project compounds were arranged in a pre-dosed mother plate (Greiner Bio-one) wherein compounds are serially diluted in 100% DMSO by 1:2 from a high concentration of 10 mM over 12 columns within a series (column 12 is a reference well containing DMSO, no compound). The compounds were robotically dispensed directly into assay plates (1x=[…]) using a Hummingbird capillary liquid handling instrument (Digilab). Following compound dispense, protein and dye in buffer was added to achieve the final assay volume of 3 μL, followed by 1 μL of silicone oil.

[2] = molecular target: human RORγt LBD (Homo sapiens (Human), UniProt P51449); test: RORγt reporter assay (GAL4-RORγt LBD luciferase, HEK293T cells); type: cell-based; settings: for RORγt reporter Assay, % inhibition @ 6 μM / IC50: HEK293T cells; for IC50: 24 hours compound treatment; for inhibition at 6 µM: HEK-293T, read-out: RORγt reporter Assay, % inhibition @ 6 μM, 6 μM, HEK293T cells
Chain of human RORγt LBD (P51449 258-518): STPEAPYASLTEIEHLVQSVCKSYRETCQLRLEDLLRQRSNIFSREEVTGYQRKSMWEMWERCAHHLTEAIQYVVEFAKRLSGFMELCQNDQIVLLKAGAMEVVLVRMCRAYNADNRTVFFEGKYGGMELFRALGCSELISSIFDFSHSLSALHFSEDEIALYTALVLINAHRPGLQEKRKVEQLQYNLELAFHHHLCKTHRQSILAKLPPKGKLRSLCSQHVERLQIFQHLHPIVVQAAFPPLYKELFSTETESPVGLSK
Source text: A reporter assay was used to test functional activity of RORγt modulatory compounds on transcriptional activation driven by the RORγt LBD. Cells used in the assay were co-transfected with two constructs. The first construct, pBIND-RORγt LBD, contained the wild type human RORγt LBD fused to the DNA binding domain of the GAL4 protein. The second construct, pGL4.31 (Promega Cat no. C935A), contained multiple GAL4 responsive DNA elements upstream of firefly luciferase. […] The mutant construct was called pBIND-RORγt-AF2. […] The pBIND vector contains the GAL4 DNA Binding Domain (GAL4 DBD) and the renilla luciferase gene under control of the SV40 promoter. Renilla luciferase expression serves as a control for transfection efficiency and cell viability.
The reporter assay was performed by transiently transfecting HEK293T cells with 5 μg of pBIND-RORγt LBD or pBIND-RORγt LBD-AF2 and 5 μg pGL4.31 (Promega Cat no. C935A) using Fugene 6 (Invitrogen Cat no. E2691) at a 1:6 ratio of DNA: Fugene 6 in a T-75 flask in which cells were at least 80% confluent. Twenty four hours after bulk transfection, cells were plated into 96-well plates at 50,000 cells/well in phenol-red free DMEM containing 5% Lipid Reduced FCS and Pen/Strep. Six hours after plating, cells were treated with compounds for 24 hours. Media was removed and cells were lysed with 50 μL 1x Glo Lysis Buffer (Promega). Dual Glo Luciferase Reagent (50 μL/well) was then added and firefly luciferase luminescence was read on an Envision after a ten minute incubation. Finally, Stop and Glo reagent (50 μL/well) was added and renilla luciferase luminescence was read on an Envision after a ten minute incubation. To calculate the effect of compounds on RORγt activity, the ratio of firefly to renilla luciferase was determined and plotted against compound concentration. Agonist compounds increase RORγt-driven luciferase expression, and antagonist or inverse agonist compounds decrease luciferase expression.

[3] = test system: IL-17 production by CD4 T cells; test: Human Th17 assay; type: cell-based; settings: IL-17 in supernatant after 3 days, human CD4+ T cells under Th17 differentiation
Source text: The human Th17 assay tests the effect of RORγt modulatory compounds on IL-17 production by CD4 T cells under conditions which favor Th17 differentiation.
Total CD4^+ T cells were isolated from the peripheral blood mononuclear cells (PBMC) of healthy donors using a CD4^+ T cell isolation kit II, following the manufacturer's instructions (Miltenyi Biotec). Cells were resuspended in a medium of RPMI-1640 supplemented with 10% fetal bovine serum, penicillin, streptomycin, glutamate, and β-mercaptoethanol and were added to 96-well plates at 1.5×10^5 per 100 μL per well. 50 μL of compound at titrated concentrations in DMSO were added into each well at final DMSO concentration at 0.2%. Cells were incubated for 1 hour, then 50 μL of Th17 cell differentiation medium was added to each well. The final concentrations of antibodies and cytokines (R&D Systems) in differentiation medium were: 3×10^6/mL anti-CD3/CD28 beads (prepared using human T cell activation/expansion kit, Miltenyi Biotec), 10 μg/mL anti-IL4, 10 μg/mL anti-IFNγ, 10 ng/mL IL113, 10 ng/mL IL23, 50 ng/mL IL6, 3 ng/mL TGFβ and 20 U/mL IL2. Cells were cultured at 37° C. and 5% CO2 for 3 days. Supernatants were collected and the accumulated IL-17 in culture was measured by using MULTI-SPOT® Cytokine Plate following manufacture's instruction (Meso Scale Discovery). The plate was read using Sector Imager 6000, and IL-17 concentration was extrapolated from the standard curve. The IC50s were determined by GraphPad.

Chain of human RORγt ligand binding domain (RORγt LBD) (P51449 other isoform, or with tags, fused parts or gaps): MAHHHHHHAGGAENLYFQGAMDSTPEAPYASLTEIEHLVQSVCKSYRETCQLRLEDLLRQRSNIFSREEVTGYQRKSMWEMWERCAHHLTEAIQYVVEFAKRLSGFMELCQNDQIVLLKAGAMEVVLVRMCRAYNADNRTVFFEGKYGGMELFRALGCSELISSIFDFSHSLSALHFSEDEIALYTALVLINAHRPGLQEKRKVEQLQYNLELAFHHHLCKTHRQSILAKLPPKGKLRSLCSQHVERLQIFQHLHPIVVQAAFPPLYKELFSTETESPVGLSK

SMILES	Kd [1] [µM]	RORγt reporter Assay, % inhibition @ 6 μM [2] [%]	IC50 [2]	IC50 ([3]; Homo sapiens, CD4+ T, 72 h) [µM]	inhibition at 6 µM [2] [%]	IC50 [3] [µM]
Cn1cncc1C(O)(c1ccc(C(F)(F)F)nc1)c1ccc2nc(C#N)c(Oc3ccccc3)c(C#N)c2c1 (single isomer, unassigned) [Example 22b, 6-(Hydroxy(1-methyl-1H-imidazol-5-yl)(6-(trifluoromethyl)pyridin-3-yl)methyl)-3-phenoxyquinoline-2,4-dicarbonitrile]	0.0029	48	~6 µM and > 6 µM	–	–	–
Cn1cncc1C(O)(c1ccc(C(F)(F)F)nc1)c1ccc2nc(C#N)c(Oc3ccccc3)c(C#N)c2c1 (single isomer, unassigned) [Example 22c, 6-(Hydroxy(1-methyl-1H-imidazol-5-yl)(6-(trifluoromethyl)pyridin-3-yl)methyl)-3-phenoxyquinoline-2,4-dicarbonitrile]	0.097	88	0.68 µM	–	–	–
Cn1cncc1C(O)(c1ccc(Cl)cc1)c1ccc2nc(N3CCC3)c(Oc3ccc(C#N)cc3)c(Cl)c2c1 (single isomer, unassigned) [Example 32b, 4-((2-(Azetidin-1-yl)-4-chloro-6-((4-chlorophenyl)(hydroxyl)(1-methyl-1H-imidazol-5-yl)methyl)quinolin-3-yl)oxy)benzonitrile]	–	–	–	0.11	101	–
Cn1cncc1C(O)(c1ccc(Cl)cc1)c1ccc2nc(N3CCC3)c(Oc3ccc(C#N)cc3)c(Cl)c2c1 (single isomer, unassigned) [Example 32c, 4-((2-(Azetidin-1-yl)-4-chloro-6-((4-chlorophenyl)(hydroxyl)(1-methyl-1H-imidazol-5-yl)methyl)quinolin-3-yl)oxy)benzonitrile]	–	101	–	–	–	0.056
Cn1cncc1C(O)(c1ccc(Cl)cc1)c1ccc2nc(Cl)c(Oc3ccccc3)c(Cl)c2c1 (stereo not shown) [Example 1, (4-Chlorophenyl)(2,4-dichloro-3-phenoxyquinolin-6-yl)(1-methyl-1H-imidazol-5-yl)methanol]	0.11	–	0.67 µM	–	86	–
CCN(CC)c1nc2ccc(C(O)(c3ccc(OC)nc3)c3cncn3C)cc2c(Cl)c1Oc1ccccc1 (stereo not shown) [Example 5a, (4-Chloro-2-(diethylamino)-3-phenoxyquinolin-6-yl)(6-methoxypyridin-3-yl)(1-methyl-1H-imidazol-5-yl)methanol]	–	–	–	0.13	104	–
CCN(CC)c1nc2ccc(C(O)(c3ccc(C(F)(F)F)nc3)c3cncn3C)cc2c(Cl)c1Oc1ccccc1 (stereo not shown) [Example 6a, (4-Chloro-2-(diethylamino)-3-phenoxyquinolin-6-yl)(1-methyl-1H-imidazol-5-yl)(6-(trifluoromethyl)pyridin-3-yl)methanol]	–	–	–	0.096	102	–
CCN(CC)c1nc2ccc(C(O)(c3cccnc3)c3cccc(Cl)c3)cc2c(Cl)c1Oc1ccccc1 (stereo not shown) [Example 7, (4-Chloro-2-(diethylamino)-3-phenoxyquinolin-6-yl)(3-chlorophenyl)(pyridin-3-yl)methanol]	–	–	–	0.11	91	–
CCN(CC)c1nc2ccc(C(O)(c3cncs3)c3cncn3C)cc2c(Cl)c1Oc1ccccc1 (stereo not shown) [Example 8, (4-Chloro-2-(diethylamino)-3-phenoxyquinolin-6-yl)(1-methyl-1H-imidazol-5-yl)(thiazol-5-yl)methanol.TFA]	–	–	–	0.048	95	–
COc1ccc(C(O)(c2ccc3nc(N(C)C)c(Oc4ccccc4)c(Cl)c3c2)c2cncn2C)cn1 (stereo not shown) [Example 17, (4-Chloro-2-(dimethylamino)-3-phenoxyquinolin-6-yl)(6-methoxypyridin-3-yl)(1-methyl-1H-imidazol-5-yl)methanol]	–	–	–	0.11	99	–
Cn1cncc1C(O)(c1ccc(Cl)cc1)c1ccc2nc(C#N)c(Oc3ccccc3)c(Cl)c2c1 (stereo not shown) [Example 19, 4-Chloro-6-((4-chlorophenyl)(hydroxy)(1-methyl-1H-imidazol-5-yl)methyl)-3-phenoxyquinoline-2-carbonitrile.TFA]	–	–	–	0.17	85	–
CCN(CC)c1nc2ccc(C(O)(c3ccc(Cl)cc3)c3cncn3C)cc2c(C(F)(F)F)c1Oc1ccc(Cl)cc1 (stereo not shown) [Example 26, (3-(4-Chlorophenoxy)-2-(diethylamino)-4-(trifluoromethyl)quinolin-6-yl)(4-chlorophenyl)(1-methyl-1H-imidazol-5-yl)methanol.TFA]	–	–	–	0.51	89	–
CCN(CC)c1nc2ccc(C(O)(c3ccc(C(F)(F)F)nc3)c3cncn3C)cc2c(C(F)(F)F)c1Oc1ccc(Cl)cc1 (stereo not shown) [Example 27a, (3-(4-Chlorophenoxy)-2-(diethylamino)-4-(trifluoromethyl)quinolin-6-yl)(1-methyl-1H-imidazol-5-yl)(6-(trifluoromethyl)pyridin-3-yl)methanol]	–	–	–	0.18	89	–
CCN(CC)c1nc2ccc(C(O)(c3ccc(OC)nc3)c3cncn3C)cc2c(C(F)(F)F)c1Oc1ccc(Cl)cc1 (stereo not shown) [Example 28, (3-(4-Chlorophenoxy)-2-(diethylamino)-4-(trifluoromethyl)quinolin-6-yl)(6-methoxypyridin-3-yl)(1-methyl-1H-imidazol-5-yl)methanol.TFA]	–	–	–	0.12	99	–
Cn1cncc1C(O)(c1ccc(C(F)(F)F)nc1)c1ccc2nc(N3CCC3)c(Oc3ccc(Cl)cc3)c(Cl)c2c1 (stereo not shown) [Example 30a, (2-(Azetidin-1-yl)-4-chloro-3-(4-chlorophenoxy)quinolin-6-yl)(1-methyl-1H-imidazol-5-yl)(6-(trifluoromethyl)pyridin-3-yl)methanol]	0.0018	–	0.14 µM	–	93	–
CN(c1ccccc1)c1c(Cl)nc2ccc(C(O)(c3ccc(Cl)cc3)c3cncn3C)cc2c1Cl (stereo not shown) [Example 38, (4-Chlorophenyl)(2,4-dichloro-3-(methyl(phenyl)amino)quinolin-6-yl)(1-methyl-1H-imidazol-5-yl)methanol]	0.035	–	0.52 µM and ~1 µM	–	85	–

— patent publication US9303015B2, “Heteroaryl linked quinolinyl modulators of RORγt” (Janssen Pharmaceutica NV, priority 2012, dated 2016)
